Measurements from publication PMC9668928, “Zandelisib (ME-401) in Japanese patients with relapsed or refractory indolent non-Hodgkin’s lymphoma: an open-label, multicenter, dose-escalation phase 1 study” (International Journal of Hematology, 2022).

System: Japanese patients with R/R iNHL
Assay: Phase 1 dose-escalation study: safety and tolerability (TEAEs, DLTs)
Assay type: in vivo
Description: Japanese patients aged ≥ 20 years with R/R iNHL histologically confirmed as FL, nodal MZL, extra-nodal MZL of mucosa-associated lymphoid tissue, small lymphocytic lymphoma, lymphoplasmacytic lymphoma, Waldenström’s macroglobulinemia, or equivalent, according to World Health Organization classification, were eligible for this study. Other key eligibility criteria included being PI3K inhibitor therapy-naïve and an Eastern Cooperative Oncology Group performance status of 0 or 1. Further details of inclusion and exclusion criteria are provided in Supplementary Table 1.
This was a multicenter, open-label, dose-escalation, phase 1 study in Japan. All patients received oral zandelisib once daily at the same time each day, at least 1 h before or 2 h after a meal (CS: continuous schedule). Each treatment cycle was 28 days. Definitions of the DLTs described in this study can be found in Supplementary Table 2. The observation period for DLTs was from day 1 of Cycle 1 to day 1 of Cycle 2. Zandelisib was administered until disease progression or unacceptable toxicity. In the event of an AE, patients could be switched to IDT. In the case of disease progression while receiving IDT, patients could be switched back to CS per the investigator’s discretion.
A starting dose of 45 mg was set for investigating patient safety. This study adopted a standard 3 + 3 design. […] If DLTs occurred in 2 or more patients, the study was planned to be suspended pending a safety evaluation. If a DLT occurred in 1 patient, 3 further patients were added to cohort 1. If DLTs occurred in 0/3 or 1/6 patients in cohort 1, dosing in cohort 2 commenced (n = 6; 60 mg/day). If the incidence of DLTs in cohort 2 was ≤ 1/6, the maximum tolerated dose was not determined, and the dose in cohort 2 was to be selected as the recommended Japanese phase 2 dose.
The primary endpoint was the safety [number of patients with treatment-emergent adverse events (TEAEs), based on Common Terminology Criteria for Adverse Events version 5.0] and tolerability (including laboratory values, vital signs, and electrocardiogram performance) of zandelisib in Japanese patients. Hepatobiliary disorder, aspartate/alanine (AST/ALT) increased, diarrhea/colitis, organizing pneumonia, stomatitis, or rash were defined as irAEs in this manuscript. Secondary endpoints included PK (plasma concentrations and PK parameters) and the efficacy of zandelisib. […] The PK parameters for Cycle 1 day 1 and Cycle 2 day 1 were calculated for each patient by non-compartmental analysis. PK parameters included maximum plasma drug concentration (Cmax), area under the plasma concentration–time curve (AUC) from time zero to the last measurable point (AUC0–t), the AUC from time zero to infinity (AUC0-inf), and terminal half-life (t1/2).

CN1CCC(c2ccccc2CC(C)(C)Nc2nc(N3CCOCC3)nc(-n3c(C(F)F)nc4ccccc43)n2)CC1 [zandelisib]
2 (66.7) n (%): TEAE ALT increased, All grades (45 mg, n = 3) | TEAE AST increased, All grades (45 mg, n = 3) | TEAE Constipation, All grades (45 mg, n = 3) | TEAE Diarrhea, All grades (45 mg, n = 3) | TEAE Gastrointestinal disorders (SOC), All grades (45 mg, n = 3) | TEAE Gastrointestinal disorders (SOC), Grade ≥ 3 (45 mg, n = 3) | TEAE Hypogammaglobulinemia, All grades (45 mg, n = 3) | TEAE Immune system disorders (SOC), All grades (45 mg, n = 3) | TEAE Infections and infestations (SOC), All grades (45 mg, n = 3) | TEAE Investigations (SOC), Grade ≥ 3 (45 mg, n = 3) | TEAE Lymphocyte count decreased, All grades (45 mg, n = 3) | TEAE Musculoskeletal and connective tissue disorders (SOC), All grades (45 mg, n = 3) | TEAE Nasopharyngitis, All grades (45 mg, n = 3) | TEAE Neutrophil count decreased, All grades (45 mg, n = 3)
1 (33.3) n (%): TEAE Abdominal pain upper, All grades (45 mg, n = 3) | TEAE Amylase increased, All grades (45 mg, n = 3) | TEAE Anemia, All grades (45 mg, n = 3) | TEAE Arthralgia, All grades (45 mg, n = 3) | TEAE Back pain, All grades (45 mg, n = 3) | TEAE Blood and lymphatic system disorders (SOC), All grades (45 mg, n = 3) | TEAE Bradycardia, All grades (45 mg, n = 3) | TEAE CMV test positive, All grades (45 mg, n = 3) | TEAE Cardiac disorders (SOC), All grades (45 mg, n = 3) | TEAE Conjunctivitis, All grades (45 mg, n = 3) | TEAE Cytomegalovirus viremia, All grades (45 mg, n = 3) | TEAE Decreased appetite, All grades (45 mg, n = 3) | TEAE Decreased appetite, Grade ≥ 3 (45 mg, n = 3) | TEAE Diarrhea, Grade ≥ 3 (45 mg, n = 3) | TEAE Dry eye, All grades (45 mg, n = 3) | TEAE Dry skin, All grades (45 mg, n = 3) | TEAE Dysgeusia, All grades (45 mg, n = 3) | TEAE Dyspnea, All grades (45 mg, n = 3) | TEAE Dyspnea, Grade ≥ 3 (45 mg, n = 3) | TEAE Ear and labyrinth disorders (SOC), All grades (45 mg, n = 3) | TEAE Eosinophil count increased, All grades (45 mg, n = 3) | TEAE Eye disorders (SOC), All grades (45 mg, n = 3) | TEAE General disorders and administration site conditions (SOC), All grades (45 mg, n = 3) | TEAE Hepatic function abnormal, All grades (45 mg, n = 3) | TEAE Hepatobiliary disorders (SOC), All grades (45 mg, n = 3) | TEAE Herpes simplex, All grades (45 mg, n = 3) | TEAE Hypoesthesia, All grades (45 mg, n = 3) | TEAE Infusion site extravasation, All grades (45 mg, n = 3) | TEAE Insomnia, All grades (45 mg, n = 3) | TEAE Joint effusion, All grades (45 mg, n = 3) | TEAE Lymphocyte count decreased, Grade ≥ 3 (45 mg, n = 3) | TEAE Metabolism and nutrition disorders (SOC), All grades (45 mg, n = 3) | TEAE Metabolism and nutrition disorders (SOC), Grade ≥ 3 (45 mg, n = 3) | TEAE Muscle spasms, All grades (45 mg, n = 3) | TEAE Nausea, All grades (45 mg, n = 3) | TEAE Nervous system disorders (SOC), All grades (45 mg, n = 3) | TEAE Neutrophil count decreased, Grade ≥ 3 (45 mg, n = 3) | TEAE Oral herpes, All grades (45 mg, n = 3) | TEAE Organizing pneumonia, All grades (45 mg, n = 3) | TEAE Organizing pneumonia, Grade ≥ 3 (45 mg, n = 3)
3 (100.0) n (%): TEAE Investigations (SOC), All grades (45 mg, n = 3)
2 patients: Grade 3 irAEs (45 mg)
0 n (%): TEAE ALT increased, Grade ≥ 3 (45 mg, n = 3) | TEAE AST increased, Grade ≥ 3 (45 mg, n = 3) | TEAE Abdominal discomfort, All grades (45 mg, n = 3) | TEAE Abdominal discomfort, Grade ≥ 3 (45 mg, n = 3) | TEAE Abdominal pain upper, Grade ≥ 3 (45 mg, n = 3) | TEAE Amylase increased, Grade ≥ 3 (45 mg, n = 3) | TEAE Anemia, Grade ≥ 3 (45 mg, n = 3) | TEAE Arthralgia, Grade ≥ 3 (45 mg, n = 3) | TEAE Back pain, Grade ≥ 3 (45 mg, n = 3) | TEAE Blepharitis, All grades (45 mg, n = 3) | TEAE Blepharitis, Grade ≥ 3 (45 mg, n = 3) | TEAE Blood and lymphatic system disorders (SOC), Grade ≥ 3 (45 mg, n = 3) | TEAE Blood creatinine increased, All grades (45 mg, n = 3) | TEAE Blood creatinine increased, Grade ≥ 3 (45 mg, n = 3) | TEAE Bradycardia, Grade ≥ 3 (45 mg, n = 3) | TEAE CMV test positive, Grade ≥ 3 (45 mg, n = 3) | TEAE Cardiac disorders (SOC), Grade ≥ 3 (45 mg, n = 3) | TEAE Conjunctivitis, Grade ≥ 3 (45 mg, n = 3) | TEAE Constipation, Grade ≥ 3 (45 mg, n = 3) | TEAE Cough, All grades (45 mg, n = 3) | TEAE Cough, Grade ≥ 3 (45 mg, n = 3) | TEAE Drug hypersensitivity, All grades (45 mg, n = 3) | TEAE Drug hypersensitivity, Grade ≥ 3 (45 mg, n = 3) | TEAE Drug-induced liver injury, All grades (45 mg, n = 3) | TEAE Drug-induced liver injury, Grade ≥ 3 (45 mg, n = 3) | TEAE Dry eye, Grade ≥ 3 (45 mg, n = 3) | TEAE Dry skin, Grade ≥ 3 (45 mg, n = 3) | TEAE Dysgeusia, Grade ≥ 3 (45 mg, n = 3) | TEAE Ear and labyrinth disorders (SOC), Grade ≥ 3 (45 mg, n = 3) | TEAE Eczema, All grades (45 mg, n = 3) | TEAE Eczema, Grade ≥ 3 (45 mg, n = 3) | TEAE Eosinophil count increased, Grade ≥ 3 (45 mg, n = 3) | TEAE Erythema multiforme, All grades (45 mg, n = 3) | TEAE Erythema multiforme, Grade ≥ 3 (45 mg, n = 3) | TEAE Eye disorders (SOC), Grade ≥ 3 (45 mg, n = 3) | TEAE Flank pain, All grades (45 mg, n = 3) | TEAE Flank pain, Grade ≥ 3 (45 mg, n = 3) | TEAE GGT increased, All grades (45 mg, n = 3) | TEAE GGT increased, Grade ≥ 3 (45 mg, n = 3) | TEAE General disorders and administration site conditions (SOC), Grade ≥ 3 (45 mg, n = 3) | TEAE Hepatic function abnormal, Grade ≥ 3 (45 mg, n = 3) | TEAE Hepatobiliary disorders (SOC), Grade ≥ 3 (45 mg, n = 3) | TEAE Herpes simplex, Grade ≥ 3 (45 mg, n = 3) | TEAE Herpes zoster, All grades (45 mg, n = 3) | TEAE Herpes zoster, Grade ≥ 3 (45 mg, n = 3) | TEAE Hypoesthesia, Grade ≥ 3 (45 mg, n = 3) | TEAE Hypogammaglobulinemia, Grade ≥ 3 (45 mg, n = 3) | TEAE Immune system disorders (SOC), Grade ≥ 3 (45 mg, n = 3) | TEAE Infections and infestations (SOC), Grade ≥ 3 (45 mg, n = 3) | TEAE Infusion site extravasation, Grade ≥ 3 (45 mg, n = 3) | TEAE Insomnia, Grade ≥ 3 (45 mg, n = 3) | TEAE Joint effusion, Grade ≥ 3 (45 mg, n = 3) | TEAE Muscle spasms, Grade ≥ 3 (45 mg, n = 3) | TEAE Musculoskeletal and connective tissue disorders (SOC), Grade ≥ 3 (45 mg, n = 3) | TEAE Nasopharyngitis, Grade ≥ 3 (45 mg, n = 3) | TEAE Nausea, Grade ≥ 3 (45 mg, n = 3) | TEAE Nervous system disorders (SOC), Grade ≥ 3 (45 mg, n = 3) | TEAE Oral herpes, Grade ≥ 3 (45 mg, n = 3) | TEAE Oropharyngeal pain, All grades (45 mg, n = 3)
no deaths were observed: deaths (45 mg and 60 mg)
